# Results: PubChem BioAssay (NCI)
#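 Cells were grown in 96-well plates and exposed to each compound for 48 hours at five concentrations; endpoints were interpolated linearly between bracketing concentrations, or set to the highest concentration if not reached. Abbreviation: GI50, concentration required for 50% inhibition of growth. TGI marks complete inhibition of growth.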
# Experiments:
# Assay in all cases: growth of human tumour cells (NCI), 48 h
# [1] = tested on: NCI/ADR-RES ovarian
# [2] = tested on: SNB-75 CNS
# [3] = tested on: SR leukemia
# [4] = tested on: HL-60(TB) leukemia
# [5] = tested on: LOX IMVI melanoma
# [6] = tested on: K-562 leukemia
# [7] = tested on: HCT-116 colon
# [8] = tested on: SF-539 CNS
# [9] = tested on: SNB-19 CNS
# [10] = tested on: SK-MEL-2 melanoma
# [11] = tested on: HCC-2998 colon
# [12] = tested on: HCT-15 colon
# [13] = tested on: HT29 colon
# [14] = tested on: NCI-H23 lung
# [15] = tested on: MDA-N
# [16] = tested on: UO-31 renal
# [17] = tested on: RPMI-8226 leukemia
# [18] = tested on: SF-268 CNS
# [19] = tested on: U251 CNS
# [20] = tested on: CCRF-CEM leukemia
# [21] = tested on: SK-OV-3 ovarian
# [22] = tested on: PC-3 prostate
# [23] = tested on: A498 renal
# [24] = tested on: SK-MEL-28 melanoma
# [25] = tested on: OVCAR-5 ovarian
# [26] = tested on: RXF 393 renal
# [27] = tested on: UACC-257 melanoma
# [28] = tested on: SN12C renal
# [29] = tested on: ACHN renal
# [30] = tested on: 786-0 renal
# [31] = tested on: COLO 205 colon
# [32] = tested on: MOLT-4 leukemia
# [33] = tested on: NCI-H460 lung
# [34] = tested on: HOP-62 NSCLC
# [35] = tested on: OVCAR-3 ovarian
# [36] = tested on: UACC-62 melanoma
# [37] = tested on: MALME-3M melanoma
# [38] = tested on: HS 578T breast
# [39] = tested on: T-47D breast
# [40] = tested on: A549 NSCLC
# [41] = tested on: MCF7 breast
# [42] = tested on: MDA-MB-435
# [43] = tested on: MDA-MB-231 breast
# [44] = tested on: SW-620 colon
# [45] = tested on: CAKI-1 renal
# [46] = tested on: BT-549 breast
# [47] = tested on: EKVX NSCLC
# [48] = tested on: NCI-H522 lung
# [49] = tested on: OVCAR-8 ovarian
# [50] = tested on: SK-MEL-5 melanoma
# [51] = tested on: M14 melanoma
# [52] = tested on: KM12 colon
# [53] = tested on: TK-10 renal
# [54] = tested on: DU-145 prostate
# [55] = tested on: OVCAR-4 ovarian
# [56] = tested on: HOP-92 NSCLC
# [57] = tested on: SF-295 CNS
# [58] = tested on: NCI-H226 lung
# [59] = tested on: IGROV1 ovarian
compound,measurement,setting,value
CCOC(=O)C(O)(NC(=O)NC(O)(C(=O)OCC)C(F)(F)F)C(F)(F)F (stereo not drawn),TGI,[1],> 100 µM
same,TGI,[2],> 100 µM
same,TGI,[3],> 100 µM
same,TGI,[4],> 100 µM
same,TGI,[5],> 100 µM
same,TGI,[6],> 100 µM
same,TGI,[7],> 100 µM
same,TGI,[8],> 100 µM
same,TGI,[9],> 100 µM
same,TGI,[10],> 100 µM
same,TGI,[11],> 100 µM
same,TGI,[12],> 100 µM
same,TGI,[13],> 100 µM
same,TGI,[14],> 100 µM
same,TGI,[15],> 100 µM
same,TGI,[16],> 100 µM
same,TGI,[17],> 100 µM
same,TGI,[18],> 100 µM
same,TGI,[19],> 100 µM
same,TGI,[20],> 100 µM
same,TGI,[21],> 100 µM
same,TGI,[22],> 100 µM
same,TGI,[23],> 100 µM
same,TGI,[24],> 100 µM
same,TGI,[25],> 100 µM
same,TGI,[26],> 100 µM
same,TGI,[27],> 100 µM
same,TGI,[28],> 100 µM
same,TGI,[29],> 100 µM
same,TGI,[30],> 100 µM
same,TGI,[31],> 100 µM
same,TGI,[32],> 100 µM
NC1=Nc2cc(OCCCN3Cc4ccccc4C3)c(OCC3CC3)cc2C12CCCC2,GI50,[1],2.91 µM
same,TGI,[1],12 µM
same,GI50,[33],2.02 µM
same,TGI,[33],4.67 µM
same,GI50,[34],3.45 µM
same,TGI,[34],11.5 µM
same,GI50,[35],2.69 µM
same,TGI,[35],8.68 µM
same,GI50,[2],1.07 µM
same,TGI,[2],7.97 µM
same,GI50,[3],1.94 µM
same,TGI,[3],5.02 µM
same,GI50,[4],2.03 µM
same,TGI,[4],4.69 µM
same,GI50,[36],1.9 µM
same,TGI,[36],3.87 µM
same,GI50,[5],1.51 µM
same,TGI,[5],2.91 µM
same,GI50,[6],0.74 µM
same,TGI,[6],4.08 µM
same,GI50,[37],1.73 µM
same,TGI,[37],3.26 µM
same,GI50,[7],1.61 µM
same,TGI,[7],3.49 µM
same,GI50,[38],2.83 µM
same,TGI,[38],17.7 µM
same,GI50,[8],1.7 µM
same,TGI,[8],3.17 µM
same,GI50,[9],4.53 µM
same,TGI,[9],16.4 µM
same,GI50,[39],1.82 µM
same,TGI,[39],4.54 µM
same,GI50,[10],2.35 µM
same,TGI,[10],4.7 µM
same,GI50,[40],3.99 µM
same,TGI,[40],13.5 µM
same,GI50,[41],1.8 µM
same,TGI,[41],4.03 µM
same,GI50,[11],1.62 µM
same,TGI,[11],3.08 µM
same,GI50,[42],1.8 µM
same,TGI,[42],3.66 µM
same,GI50,[43],1.62 µM
same,TGI,[43],3.65 µM
same,GI50,[12],2.1 µM
same,TGI,[12],6.51 µM
same,GI50,[13],1.95 µM
same,TGI,[13],6.53 µM
same,GI50,[44],2.07 µM
same,TGI,[44],4.88 µM
same,GI50,[14],3.61 µM
same,TGI,[14],12.9 µM
same,GI50,[16],1.49 µM
same,TGI,[16],3.14 µM
same,GI50,[17],1.75 µM
same,TGI,[17],4.51 µM
same,GI50,[18],3.79 µM
same,TGI,[18],16.9 µM
same,GI50,[45],2.31 µM
same,TGI,[45],11.3 µM
same,GI50,[19],1.8 µM
same,TGI,[19],3.88 µM
same,GI50,[20],2.45 µM
same,TGI,[20],9.26 µM
same,GI50,[21],4.48 µM
same,TGI,[21],17.4 µM
same,GI50,[46],2.26 µM
same,TGI,[46],7.84 µM
same,GI50,[47],3.18 µM
same,TGI,[47],11.8 µM
same,GI50,[22],2.66 µM
same,TGI,[22],12.7 µM
same,GI50,[23],4.48 µM
same,TGI,[23],18.1 µM
same,GI50,[24],1.84 µM
same,TGI,[24],3.46 µM
same,GI50,[48],2.25 µM
same,TGI,[48],4.87 µM
same,GI50,[49],3.71 µM
same,TGI,[49],13.9 µM
same,GI50,[50],1.67 µM
same,TGI,[50],3.04 µM
same,GI50,[51],1.85 µM
same,TGI,[51],3.47 µM
same,GI50,[52],4.04 µM
same,TGI,[52],15.5 µM
same,GI50,[53],2.31 µM
same,TGI,[53],8.16 µM
same,GI50,[25],5.99 µM
same,TGI,[25],19.1 µM
same,GI50,[26],1.34 µM
same,TGI,[26],3.58 µM
same,GI50,[27],2.2 µM
same,TGI,[27],3.94 µM
same,GI50,[54],4.44 µM
same,TGI,[54],16.2 µM
same,GI50,[55],3.55 µM
same,TGI,[55],16.6 µM
same,GI50,[56],0.718 µM
same,TGI,[56],3.14 µM
same,GI50,[28],3.85 µM
same,TGI,[28],15.2 µM
same,GI50,[29],3.44 µM
same,TGI,[29],11.9 µM
same,GI50,[30],1.69 µM
same,TGI,[30],3.77 µM
same,GI50,[31],1.59 µM
same,TGI,[31],3.29 µM
same,GI50,[57],1.64 µM
same,TGI,[57],3.42 µM
same,GI50,[58],3.72 µM
same,TGI,[58],21 µM
same,GI50,[59],4.17 µM
same,TGI,[59],17.2 µM
same,GI50,[32],2.17 µM
same,TGI,[32],6.22 µM
